Experimental data published in patent publication US9650338B1 (priority 2016, dated 2017).

Assays:
[1] = target: opiate receptor sites in the CNS; experiment: Competitive binding to opiate receptor sites in the CNS, rat brain, 3H-Naloxone
[2] = target: opiate receptor sites in the CNS; experiment: Competitive binding to opiate receptor sites in the CNS, mouse brain; details: Brain of the mouse (Table 5, mean; spread in a separate column)
[3] = test system: respiratory depression caused by LD50 of Promedol (Trimeperidine); experiment: Antagonism of respiratory depression caused by LD50 of Promedol; details: rat, Promedol (Trimeperidine) 70 mg/kg (LD50)
[4] = test system: analgesic effects of the ED99 of morphine; experiment: Antagonism of the analgesic effect of the ED99 of morphine, mechanical irritation of the tail; details: rat, under skin injection, morphine 5 mg/kg (ED99)

Row | Compound | IC50 ([1]; Brain of the rate (Table 5, mean; spread in a separate column), read-out: IC50) | IC50 ([1]; brain of the rat, 3H-Naloxone (Table 4), read-out: Affinity IC50) | IC50 [2] | Median Antagonistic activity AD50 (parenthetical is range) [3] | Median Antagonistic activity AD50 (parenthetical is range) [4]
1 | CCC(=O)NC1CC(C)N(CCc2ccccc2)CC1C (stereo not shown) [N-[2,5-dimethyl-1-(2-phenylethyl)piperidin-4-yl]propanamide] | 0.12 nM | 0.12 nM | 0.1 nM | 5.1 (3.4-7.8) mg/kg | 1.2 (0.8-1.64) mg/kg
2 | C=CCN1CC[C@]23c4c5ccc(O)c4O[C@H]2C(=O)CC[C@@]3(O)[C@H]1C5 [naloxone, 17-allyl-4,5a-epoxy-3,14-dihydroxymorphinan-6-one, reference compound] |  |  |  | 1.8 (1.1-3.2) mg/kg | 0.3 (0.22-0.39) mg/kg
